The values that follow come from US5140047A, “Lipoxygenase inhibitors” (SmithKline Beecham Corporation, priority 1991, dated 1992).

The term ED50 denotes the midpoint of the dose-response relation.

Like-named read-outs stand apart in the source and are kept apart here.

In test [1] the test system is myocardial infarction. Particulars: dogs, Mullane et al. 1984; cited from earlier work.
Test [2] deals with T1, 5-lipoxygenase (5-LO) isolated from extracts of RBL-1 cells (Rattus norvegicus, UniProt P12527).
T1 construct: isolated from extracts of RBL-1 cells; endogenous in cells; host or cells: RBL-1 cells (cell extract / supernatant)
T1 sequence (P12527 1-673): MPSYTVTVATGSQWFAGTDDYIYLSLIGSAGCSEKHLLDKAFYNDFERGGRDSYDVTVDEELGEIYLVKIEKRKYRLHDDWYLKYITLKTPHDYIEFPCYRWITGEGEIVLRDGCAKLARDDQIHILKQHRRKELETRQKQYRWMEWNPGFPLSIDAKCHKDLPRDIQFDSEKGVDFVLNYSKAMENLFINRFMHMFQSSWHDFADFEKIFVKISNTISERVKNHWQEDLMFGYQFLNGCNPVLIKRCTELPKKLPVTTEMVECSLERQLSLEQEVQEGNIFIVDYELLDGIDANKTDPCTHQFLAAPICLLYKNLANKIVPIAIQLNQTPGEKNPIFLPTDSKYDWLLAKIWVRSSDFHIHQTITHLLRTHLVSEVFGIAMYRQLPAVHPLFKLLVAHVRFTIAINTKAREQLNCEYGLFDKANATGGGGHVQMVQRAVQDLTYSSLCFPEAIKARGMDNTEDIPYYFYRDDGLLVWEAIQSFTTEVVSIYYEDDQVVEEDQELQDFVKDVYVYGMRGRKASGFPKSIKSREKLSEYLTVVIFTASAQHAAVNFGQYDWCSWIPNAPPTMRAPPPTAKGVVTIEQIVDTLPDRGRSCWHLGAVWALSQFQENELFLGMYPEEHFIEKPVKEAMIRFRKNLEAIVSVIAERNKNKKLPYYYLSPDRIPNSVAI
Kind of test: 5-LO activity, RBL-1 supernatant, oxygen consumption. Type of test: biochemical. The note with it: RBL-1 supernatant 5-LO enzyme; 10 uM arachidonic acid, 20° C.; read-out: 5-LO IC-50. The procedure: The 5-lipoxygenase (5-LO) was isolated from extracts of RBL-1 cells. The assay for assessing inhibition of the 5-LO activity was a continuous assay which monitored the consumption of oxygen (O2). The cell extract (100 ug) was preincubated with the inhibitor or its vehicle in 25 mM BisTris buffer (pH 7.0) that contained 1 mM EDTA, 1 mM ATP, 150 mM NaCl and 5% ethylene glycol for 2 minutes at 20° C. (total volume 2.99 ml). Arachidonic acid (10 uM) and CaCl2 (2 mM) were added to start the reaction, and the decrease in O2 concentration followed with time using a Clark-type electrode and the Yellow Spring O2 monitor (type 53) (Yellow Springs, Ohio). The optimum velocity was calculated from the progress curves. All compounds were dissolved in ethanol with the final concentration of ethanol being 1% in the assay. Drug-induced effects on enzyme activities are described as the concentration of drug causing a 50% inhibition of oxygen consumption (IC50).

The subject of test [3] is human monocyte LTB4 production. Description: LTB4 production from human monocytes in vitro (A23187 stimulated, RIA). Type of test: cell-based. The method, then: (§1) Human monocytes were prepared from leukosource packs supplied by the American Red Cross. The leukosource packs were fractionated by a two-step procedure described by F. Colatta et al. (J. Immunology 132: 936, 1984) that uses sedimentation on Ficoll followed by sedimentation on Percoll. The monocyte fraction that results from this technique was composed of 80-90% monocytes with the remainder being neutrophils and lymphocytes. In addition, significant number of platelets are present.
(§2) The monocytes (10^6 cells) were placed into polypropylene tubes and used as a suspended culture. The assay buffer consisted of RPMI 1640 buffer, 2 mM glutamine, 2.5 mM HEPES and 2 mM CaCl2 (total volume 0.475 ml). Compounds (0.005 ml) were added in DMSO, and the cells were preincubated for 10 minutes at 37° C. with constant agitation. A23187 (2 uM) was used to stimulate the cells. After an additional 10 minutes, the buffer was collected by centrifugation (2500×g for 15 minutes), and stored at -70° C. until assayed. LTB4 production was measured by radioimmunassay which was performed according to the manufacturer's (Advanced Magnetics, Boston, Mass.) instructions. PGE2 was determined using an RIA kit supplied by New England Nuclear (Boston, Mass.).

For test [4], the system named is human monocyte PGE2 production (cyclooxygenase activity). Description: PGE2 production from human monocytes in vitro (A23187 stimulated, RIA). Type of test: cell-based. Particulars: for IC50: Homo sapiens, Monocyte. The procedure: as §1, §2
Test [5] relates to 5-LO activity (LTB4) in mouse whole blood. Kind of test: Ex vivo mouse blood eicosanoid assay (LTB4, A23187 stimulated). Type of test: in vivo, mouse (CD1). The note with it: po, per os; for inhibition at 10 mg/kg: read-out: ex vivo, % inh., heading: ex vivo, % inh., 30 min pre-treatment, mouse whole blood, A23187 60 uM. The procedure: In experiments when mice were used they were CD1 mice obtained from Charles River Breeding Laboratories, and within a single experiment the mice were age-matched. Their weight range was from 25 to 42 g. The test groups generally contained 3-6 animals.
Mice were pre-treated per os with vehicle or a test compound (dissolved in dimethylacetamide and diluted 1 to 10 with sesame oil) 30 minutes prior to removal of blood. The 5-lipoxygenase product LTB4, was extracted from whole blood following A23187 stimulation. Aliquots of pooled heparinized mouse blood (1 ml each aliquot) from male CD1 mice (Charles River) were placed into 4 ml polypropylene tubes. The tubes were preincubated for about five minutes at 37° C. A23187 (60 uM) was added to stimulate eicosanoid production. Several aliquots of blood were not stimulated and, thus, provided background levels for eicosanoid production. All tubes were incubated for about 30 minutes at 37° C. The blood samples were centrifuged at 400×g for about 15 minutes, and the plasma recovered for extraction. One volume of chilled acetonitrile was added to all at 5° C. The supernatants were recovered and diluted with 1% formic acid: 1% triethylamine to achieve a final concentration of 20% acetonitrile. These supernatants were then loaded onto the extraction cartridge that had been conditioned according to the Manufacturer's instructions (Solid Phase Extraction Columns, J. T. Baker, C18 3 ml size). The samples were washed with 3 ml of 1% formic acid: 1% triethylamine, air dried, and then washed with 3 ml of petroleum ether. After air drying again, the samples were eluted with methyl formate. The eluents were concentrated under vacuum. The concentrates were resuspended in 30% acetonitrile buffered with 50 mM ammonium acetate ([…]). The recovery of LTB4 was 60%. The 300 ul concentrates were assayed by radioreceptor assay for LTB4 by labortatory protocol.
Mean values for groups were calculated and percent inhibition was determined between the vehicle control mean and test group. […]

For test [6], the system named is eicosanoid production in human whole blood. Kind of test: Inhibition of eicosanoid production following calcium ionophore stimulation in human whole blood. The class given is cell-based. The note with it: calcium ionophore 60 μM. The method, then: The eicosanoids, which include the 5-lipoxygenase product LTB4, transLTB4, 20-hydroxyLTB4, 5-HETE, and the 12-lipoxygenase product are extracted from the whole blood following A23187 calcium ionophore stimulation. The extracts are separated by reverse phase high pressure liquid chromatography and quantified by absorbance methods.
Venous human blood is collected into polypropylene tubes containing 1% heparin. The blood is then aliquoted into 4.5 ml volumes and preincubated at 37° C. for 6 minutes in polypropylene tubes (15 ml size). Compound or carrier (10 μL dimethylsulfoxide) is added 6 minutes prior to stimulation. Calcium ionophore (0.5 ml) is added, and the blood incubated for 6 minutes. Prostaglandin B2 (1 nmole) is added, and the blood extracted as described below.
The samples are centrifuged at 1000×g for 15 minutes at 5° C. The plasma is collected, and one volume of acetonitrile is added to the plasma. This suspension is then centrifuged at 1000×g for 15 minutes at 5° C. The supernatant is collected and diluted with 1.5 volumes of chilled aqueous 1% formic acid. This mixture is loaded onto a preconditioned J. T. Baker C18 SPE cartridge (Phillipsburg, N.J.) at a flow rate of 1-2 ml/minute. (The cartridge is preconditioned according to manufacture's recommendations.) The absorbed sample is washed in the following order with three (3) ml each of (i) aqueous 1% formic acid: 1% triethylamine; and (ii) petroleum ether.
The eicosanoids are eluted in 3 ml of methyl formate. The solvent is removed under vacuum. The sample is resuspended in […] of 50% acetonitrile buffered with ammonium acetate. […]
The eicosanoids in the samples are verified by their retention times and their UV absorbance spectra. The peaks are quantified with reference to the internal standard and their absorbance response at their maximum absorbance wavelength.

Test [7] deals with LTB4 and 5-HETE production. The note with it: Stenson et al. 1982; cited from earlier work.
The subject of test [8] is rheumatoid arthritis. The note with it: preliminary observation, Neumann et al. 1983; cited from earlier work.
Test [9] has as its system psoriasis. The note with it: Allen et al. 1983; cited from earlier work.
In test [10] the test system is lipoxygenase. Particulars: cited from earlier work.

Regarding `NC1=NN(c2cccc(C(F)(F)F)c2)CC1` [BW755-C], the “area of infarction following coronary occlusion” value in test [1] was “reduced”.

`NC(=O)N(O)C1CCCc2c1ccc1ccccc21` (stereo not shown) [Example 1, N-1-(1,2,3,4-Tetrahydrophenanthrenyl)-N-hydroxyurea]: the IC50 in [2] was 4.2 µM; in test [3] (A23187 2 uM, Table 1, read-out: human monocyte-IC50, LTB4), 1.6 µM; in [3] (read-out: IC50, production of LTB4 in the human monocyte), 1.6 µM; in [4] (A23187 2 uM, Table 1, read-out: human monocyte-IC50, PGE2), greater than 30 µM; in test [4] (read-out: IC50, production of the prostaglandin PGE2 (human monocyte)), greater than 30 µM; in [6], greater than 10 µM. For the same compound, the “cyclooxygenase activity as indicated by production of PGE2” value in test [4] (result in words) was “did not inhibit cyclooxygenase activity”. The ED50 in test [5] (0.5 h, mouse whole blood ex vivo, A23187, linear regression, read-out: ED50 (inhibition of 5-LO activity ex vivo)) is 2.5 mg/kg. In addition, in test [5], the inhibition at 10 mg/kg was found to be 86%.

Consider `NC(=O)N(O)C1COc2c1ccc1ccccc21` (stereo not shown) [Example 2], for which the IC50 in test [2] is 5.6 µM; in [6], greater than 10 µM. Moreover, the inhibition at 10 mg/kg in test [5] is 92%.

`NC(=O)N(O)C1COc2ccc3ccccc3c21` (stereo not shown) [Example 3]: the IC50 in [2] is 8 µM; in [6], greater than 10 µM.

For `O=C(O)c1cc(/N=N/c2ccc(S(=O)(=O)Nc3ccccn3)cc2)ccc1O` [Sulfasalazine], the “inhibition of LTB4 and 5-HETE production in vitro” value in [7] is “inhibit LTB4 and 5-HETE production in vitro”. Moreover, in test [8], the “efficacy in rheumatoid arthritic patients” value is “efficacy, including remission”.

`CC(C(=O)O)c1ccc2oc(-c3ccc(Cl)cc3)nc2c1` (stereo not shown) [benoxaprofen]: the effect on psoriasis entry in test [9] is recorded as “promising effect”. The “in vitro lipoxygenase inhibitory activity” value in test [10] is on record as “in vitro lipoxygenase inhibitory activity”.
